Results as given in patent US20230287021A1, “COMPOUNDS, COMPOSITIONS AND METHODS FOR STABILIZING TRANSTHYRETIN AND INHIBITING TRANSTHYRETIN MISFOLDING” (Protego Biopharma, Inc., priority 2020, published 2023).
Counter-ions that a name gives are not always drawn.

Experiment: In vitro rat plasma stability assay, formation of tafamidis
Format: in vitro ADME
Conditions: 37° C., 2 µM test compound
Procedure: A stability assay in plasma (rat or human) was used to evaluate the ability of a compound provided herein to convert to an active TTR stabilizer. The test compound was added to plasma and incubated at 37° C. in a water bath at a concentration of 2 µM. At each time point (0, 10, 30, 60 and 120 min or 0, 60, 120, 180 and 240 min), stop solution (tolbutamide plus labetalol) was added to precipitate protein and mixed thoroughly. After centrifugation, an aliquot of supernatant was analyzed by LC-MS/MS. The percentage of formation of active agent was calculated at each time point.

Row | Compound | Formation of tafamidis at 120 min
1 | C[N+](C)(C)CCOC(=O)c1ccc2nc(-c3cc(Cl)cc(Cl)c3)oc2c1.[Cl-] [Compound 29, 2-((2-(3,5-dichlorophenyl)benzo[d]oxazole-6-carbonyl)oxy)-N,N,N-trimethylethanaminium chloride] | A (A is <25%)
2 | O=C(NCCCO)c1ccc2nc(-c3cc(Cl)cc(Cl)c3)oc2c1 [Compound 68, 2-(3,5-dichlorophenyl)-N-(3-hydroxypropyl)benzo[d]oxazole-6-carboxamide] | A (A is <25%)
3 | Cc1oc(=O)oc1COC(=O)c1ccc2nc(-c3cc(Cl)cc(Cl)c3)oc2c1 [Compound 24, (5-methyl-2-oxo-1,3-dioxol-4-yl)methyl 2-(3,5-dichlorophenyl)benzo[d] oxazole-6-carboxylate] | D (D is ≥75%)
4 | O=C(NCC(F)(F)F)c1ccc2nc(-c3cc(Cl)cc(Cl)c3)oc2c1 [Compound 67, 2-(3,5-dichlorophenyl)-N-(2,2,2-trifluoroethyl)benzo[d] oxazole-6-carboxamide] | A (A is <25%)
5 | CNCCOC(=O)c1ccc2nc(-c3cc(Cl)cc(Cl)c3)oc2c1 [Compound 9, 2-(methylamino)ethyl 2-(3,5-dichlorophenyl)benzo[d]oxazole-6-carboxylate hydrochloride] | A (A is <25%)
6 | O=C(OCc1ncco1)c1ccc2nc(-c3cc(Cl)cc(Cl)c3)oc2c1 [Compound 91] | C (C is ≥50 to <75%)
7 | CC(C)(C)OC(=O)NCCCOC(=O)c1ccc2nc(-c3cc(Cl)cc(Cl)c3)oc2c1 [Compound 31, 3-((tert-butoxycarbonyl)amino)propyl 2-(3,5-dichlorophenyl) benzo [d]oxazole-6-carboxylate] | C (C is ≥50 to <75%)
8 | NCCCOC(=O)c1ccc2nc(-c3cc(Cl)cc(Cl)c3)oc2c1 [Compound 25, 3-aminopropyl 2-(3,5-dichlorophenyl)benzo[d]oxazole-6-carboxylate hydrochloride] | A (A is <25%)
9 | CC(C)(C)OC(=O)N[C@@H](Cc1ccc(OC(=O)c2ccc3nc(-c4cc(Cl)cc(Cl)c4)oc3c2)cc1)C(=O)OCc1ccccc1 [Compound 18, (S)-4-(3-(benzyloxy)-2-((tert-butoxycarbonyl)amino)-3-oxopropyl) phenyl 2-(3,5-dichlorophenyl)benzo[d]oxazole-6-carboxylate] | C (C is ≥50 to <75%)
10 | O=C(OCCC[P+](c1ccccc1)(c1ccccc1)c1ccccc1)c1ccc2nc(-c3cc(Cl)cc(Cl)c3)oc2c1.[Br-] [Compound 4, (3-(2-(3,5-Dichlorophenyl)benzo[d]oxazole-6-carbonyloxy)propyl) triphenylphosphonium bromide] | A (A is <25%)
11 | N[C@H](Cc1ccc(OC(=O)c2ccc3nc(-c4cc(Cl)cc(Cl)c4)oc3c2)cc1)C(=O)O [Compound 71] | A (A is <25%)
12 | O=C(NCCO)c1ccc2nc(-c3cc(Cl)cc(Cl)c3)oc2c1 [Compound 64, 2-(3,5-dichlorophenyl)-N-(2-hydroxyethyl)benzo[d]oxazole-6-carboxamide] | A (A is <25%)
13 | O=C(OC1CCOC1)c1ccc2nc(-c3cc(Cl)cc(Cl)c3)oc2c1 (centres unmarked) [Compound 95] | D (D is ≥75%)
14 | CN(C)CCOC(=O)c1ccc2nc(-c3cc(Cl)cc(Cl)c3)oc2c1 [Compound 6, 2-(dimethylamino)ethyl 2-(3,5-dichlorophenyl)benzo-[d]oxazole-6-carboxylate hydrochloride] | D (D is ≥75%)
15 | CC(C)(C)OC(=O)NCCOC(=O)c1ccc2nc(-c3cc(Cl)cc(Cl)c3)oc2c1 [Compound 10, 2-((tert-butoxycarbonyl)amino)ethyl 2-(3,5-dichlorophenyl) benzo [d]oxazole-6-carboxylate] | A (A is <25%)
16 | CC(C)(C)OC(=O)N[C@H](Cc1cccc(OC(=O)c2ccc3nc(-c4cc(Cl)cc(Cl)c4)oc3c2)c1)C(=O)OCc1ccccc1 [Compound 63] | B (B is ≥25 to <50%)
17 | O=C(OCCC1CCCO1)c1ccc2nc(-c3cc(Cl)cc(Cl)c3)oc2c1 (centres unmarked) [Compound 97] | A (A is <25%)
18 | C[C@H](COC(=O)c1ccc2nc(-c3cc(Cl)cc(Cl)c3)oc2c1)N(C)C [Compound 45, (R)-2-(dimethylamino)propyl 2-(3,5-dichlorophenyl)benzo[d] oxazole-6-carboxylate] | C (C is ≥50 to <75%)
19 | CC(C)(C)OC(=O)N1CCC(OC(=O)c2ccc3nc(-c4cc(Cl)cc(Cl)c4)oc3c2)CC1 [Compound 12, 1-(tert-butoxycarbonyl)piperidin-4-yl 2-(3,5-dichlorophenyl)benzo [d]oxazole-6-carboxylate] | A (A is <25%)
20 | CN(C)C(CO)COC(=O)c1ccc2nc(-c3cc(Cl)cc(Cl)c3)oc2c1 (centres unmarked) [Compound 55, 2-(dimethylamino)-3-hydroxypropyl 2-(3,5-dichlorophenyl) benzo [d]oxazole-6-carboxylate] | D (D is ≥75%)
21 | CN(CCO)C(=O)c1ccc2nc(-c3cc(Cl)cc(Cl)c3)oc2c1 [Compound 65, 2-(3,5-dichlorophenyl)-N-(2-hydroxyethyl)-N-methylbenzo [d] oxazole-6-carboxamide] | A (A is <25%)

Row | Compound | Formation of tafamidis at 120 min
22 | CN1CCN(CCCOC(=O)c2ccc3nc(-c4cc(Cl)cc(Cl)c4)oc3c2)CC1 [Compound 94] | C (C is ≥50 to <75%)
23 | CC(C)(C)OC(=O)N[C@H](Cc1cccc(OC(=O)c2ccc3nc(-c4cc(Cl)cc(Cl)c4)oc3c2)c1)C(=O)O [Compound 72] | B (B is ≥25 to <50%)
24 | CC(C)(C)OC(=O)N[C@@H](Cc1cccc(OC(=O)c2ccc3nc(-c4cc(Cl)cc(Cl)c4)oc3c2)c1)C(=O)O [Compound 20, (S)-2-((tert-butoxycarbonyl)amino)-3-(3-((2-(3,5-dichlorophenyl)benzo [d]oxazole-6-carbonyl)oxy)phenyl)propanoic acid] | B (B is ≥25 to <50%)
25 | CN1CCN(CCOC(=O)c2ccc3nc(-c4cc(Cl)cc(Cl)c4)oc3c2)CC1 [Compound 93] | B (B is ≥25 to <50%)
26 | CCN(C)CCOC(=O)c1ccc2nc(-c3cc(Cl)cc(Cl)c3)oc2c1 [Compound 43] | C (C is ≥50 to <75%)
27 | CN1C[C@@H](O)[C@H](OC(=O)c2ccc3nc(-c4cc(Cl)cc(Cl)c4)oc3c2)C1 [Compound 56, (3R,4R)-4-hydroxy-1-methylpyrrolidin-3-yl 2-(3,5-dichlorophenyl)benzo[d] oxazole-6-carboxylate] | D (D is ≥75%)
28 | CC(C)(C)OC(=O)N[C@H](Cc1ccc(OC(=O)c2ccc3nc(-c4cc(Cl)cc(Cl)c4)oc3c2)cc1)C(=O)OCc1ccccc1 [Compound 69] | A (A is <25%)
29 | O=C(OCCCN1CCS(=O)(=O)CC1)c1ccc2nc(-c3cc(Cl)cc(Cl)c3)oc2c1 [Compound 84] | D (D is ≥75%)
30 | O=C(OCCCN1CCOCC1)c1ccc2nc(-c3cc(Cl)cc(Cl)c3)oc2c1 [Compound 81] | D (D is ≥75%)
31 | O=C(OCCCC1CCOC1)c1ccc2nc(-c3cc(Cl)cc(Cl)c3)oc2c1 (centres unmarked) [Compound 100] | D (D is ≥75%)
32 | O=C(OCCCC1CCCO1)c1ccc2nc(-c3cc(Cl)cc(Cl)c3)oc2c1 (centres unmarked) [Compound 101] | C (C is ≥50 to <75%)
33 | CN(C)CCCCCOC(=O)c1ccc2nc(-c3cc(Cl)cc(Cl)c3)oc2c1 [Compound 51, 5-(dimethylamino)pentyl 2-(3,5-dichlorophenyl)benzo[d] oxazole-6-carboxylate] | D (D is ≥75%)
34 | O=C(OC[C@H]1O[C@@H](O)C(O)[C@H](O)C1O)c1ccc2nc(-c3cc(Cl)cc(Cl)c3)oc2c1 (some centres unmarked) [Compound 5, (3,4,5,6-Tetrahydroxytetrahydro-2H-pyran-2-yl)methyl 2-(3,5-Dichlorophenyl) Benzo[d]oxazole-6-Carboxylate] | A (A is <25%)
35 | O=C(OC1CCOC1=O)c1ccc2nc(-c3cc(Cl)cc(Cl)c3)oc2c1 (centres unmarked) [Compound 21] | B (B is ≥25 to <50%)
36 | Cc1oc(=O)n(C)c1COC(=O)c1ccc2nc(-c3cc(Cl)cc(Cl)c3)oc2c1 [Compound 30, (3,5-dimethyl-2-oxo-2,3-dihydrooxazol-4-yl)methyl 2-(3,5-dichlorophenyl) benzo[d]oxazole-6-carboxylate] | B (B is ≥25 to <50%)
37 | C[C@@H](COC(=O)c1ccc2nc(-c3cc(Cl)cc(Cl)c3)oc2c1)N(C)C [Compound 44, (S)-2-(dimethylamino)propyl 2-(3,5-dichlorophenyl)benzo[d] oxazole-6-carboxylate] | C (C is ≥50 to <75%)
38 | CC(C)(C)OC(=O)N1CCC(OC(=O)c2ccc3nc(-c4cc(Cl)cc(Cl)c4)oc3c2)C1 (centres unmarked) [Compound 16, 1-(tert-butoxycarbonyl)pyrrolidin-3-yl 2-(3,5-dichlorophenyl) benzo[d]oxazole-6-carboxylate] | B (B is ≥25 to <50%)
39 | O=C(OCCC[n+]1ccccc1)c1ccc2nc(-c3cc(Cl)cc(Cl)c3)oc2c1.[Br-] [Compound 3, 1-(3-(2-(3,5-Dichlorophenyl)benzo[d]oxazole-6-carbonyloxy)propyl)-pyridinium bromide] | A (A is <25%)
40 | O=C(OCCCN1CCNCC1)c1ccc2nc(-c3cc(Cl)cc(Cl)c3)oc2c1 [Compound 83] | D (D is ≥75%)
41 | CC(C)(C)OC(=O)N[C@@H](Cc1ccc(OC(=O)c2ccc3nc(-c4cc(Cl)cc(Cl)c4)oc3c2)cc1)C(=O)O [Compound 22, (S)-2-((tert-butoxycarbonyl)amino)-3-(4-((2-(3,5-dichlorophenyl)benzo[d]oxazole-6-carbonyl)oxy)phenyl)propanoic acid] | D (D is ≥75%)
